Assay results: patent publication US10385097B2, “Ether compounds for treatment of medical disorders” (Achillion Pharmaceuticals, Inc., priority 2015, dated 2019)

Molecular target: T1, Human Factor D (Homo sapiens, UniProt P00746)
T1 construct: purified from human serum; purchased Complement Technology, Inc; host or cells: human serum (natural protein, not recombinant)
Experiment: Human Factor D Assay
Assay type: biochemical
Settings: Table 3; Human Factor D 80 nM, substrate Z-L-Lys-SBzl; read-out: (IC50 (Stars))
Summary of the method: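 Serum-purified factor D (80 nM final) preincubated 5 min at room temperature with compound in 50 mM Tris, 1 M NaCl, pH 7.5. Reaction started with 100 μM Z-L-Lys-SBzl plus 100 μM DTNB; A405 read every 30 s for 30 min; IC50 by nonlinear regression of rates.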

T1 sequence (P00746 26-253): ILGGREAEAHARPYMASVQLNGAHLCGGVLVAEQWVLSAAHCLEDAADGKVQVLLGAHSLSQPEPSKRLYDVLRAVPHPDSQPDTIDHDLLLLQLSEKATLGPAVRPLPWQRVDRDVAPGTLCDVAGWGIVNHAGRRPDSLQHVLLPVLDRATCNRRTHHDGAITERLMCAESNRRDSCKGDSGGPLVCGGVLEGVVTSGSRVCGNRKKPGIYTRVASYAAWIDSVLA

| IC50 | Structure (SMILES) |
| --- | --- |
| < 1 µM | CC(=O)c1nn(CC(=O)N2C[C@H](F)C[C@H]2C(=O)Nc2ccc(F)c(Br)n2)c2ccc(Oc3ncc(C)cn3)cc12 [Compound 176, (2S,4R)-1-(2-(3-Acetyl-5-((5-methylpyrimidin-2-yl)oxy)-1H-indazol-1-yl)acetyl)-N-(6-bromo-5-fluoropyridin-2-yl)-4-fluoropyrrolidine-2-carboxamide] |
| < 1 µM | CC(=O)c1nn(CC(=O)N2[C@@H]3C[C@@H]3C[C@H]2C(=O)Nc2ccc(F)c(Br)n2)c2ccc(Oc3ncc(C)cn3)cc12 [Compound 177, (1R,3S,5R)-2-(2-(3-Acetyl-5-((5-methylpyrimidin-2-yl)oxy)-1H-indazol-1-yl)acetyl)-N-(6-bromo-5-fluoropyridin-2-yl)-2-azabicyclo[3.1.0]hexane-3-carboxamide] |
| < 1 µM | CC(=O)c1nn(CC(=O)N2C[C@H](F)C[C@H]2C(=O)Nc2ccc(F)c(Br)n2)c2ccc(Oc3cnc(C)cn3)cc12 [Compound 178, (2S,4R)-1-(2-(3-Acetyl-5-((5-methylpyrazin-2-yl)oxy)-1H-indazol-1-yl)acetyl)-N-(6-bromo-5-fluoropyridin-2-yl)-4-fluoropyrrolidine-2-carboxamide] |
| < 1 µM | CC(=O)c1nn(CC(=O)N2C[C@H](F)C[C@H]2C(=O)Nc2nc(Br)ccc2C)c2ccc(Oc3cnc(C)cn3)cc12 [Compound 179, (2S,4R)-1-(2-(3-Acetyl-5-((5-methylpyrazin-2-yl)oxy)-1H-indazol-1-yl)acetyl)-N-(6-bromo-3-methylpyridin-2-yl)-4-fluoropyrrolidine-2-carboxamide] |
| < 1 µM | CC(=O)c1nn(CC(=O)N2C[C@H](F)C[C@H]2C(=O)Nc2cccc(Br)n2)c2ccc(Oc3cc(C)ncn3)cc12 [Compound 180, (2S,4R)-1-(2-(3-Acetyl-5-((6-methylpyrimidin-4-yl)oxy)-1H-indazol-1-yl)acetyl)-N-(6-bromopyridin-2-yl)-4-fluoropyrrolidine-2-carboxamide] |
| > 10 µM | Cc1cccc(NC(=O)[C@@H]2[C@H]3CC[C@H](C3)N2C(=O)Cn2cc(C(N)=O)c3cc(OCP(=O)(O)O)ccc32)n1 [Compound 183, (((3-carbamoyl-1-(2-((1R,3S,4S)-3-((6-methylpyridin-2-yl)carbamoyl)-2-azabicyclo[2.2.1]heptan-2-yl)-2-oxoethyl)-1H-indol-5-yl)oxy)methyl)phosphonic acid] |
| < 1 µM | CC(=O)c1nn(CC(=O)N2C[C@H]3C[C@H]3[C@H]2C(=O)Nc2nc(Br)ccc2C2CC2)c2ccc(O[C@@H]3CO[C@H]4[C@@H]3OC[C@H]4O)cc12 [Compound 184, (1R,2S,5S)-3-(2-(3-Acetyl-5-((3R,3aR,6R,6aR)-6-hydroxyhexahydrofuro[3,2-b]furan-3-yloxy)-1H-indazol-1-yl)acetyl)-N-(6-bromo-3-cyclopropylpyridin-2-yl)-3-azabicyclo[3.1.0]hexane-2-carboxamide] |
| < 1 µM | CC(=O)c1nn(CC(=O)N2C[C@H]3C[C@H]3[C@H]2C(=O)Nc2nc(Br)ccc2C)c2ccc(O[C@@H]3CO[C@H]4[C@@H]3OC[C@H]4O)cc12 [Compound 185, (1R,2S,5S)-3-(2-(3-Acetyl-5-((3R,3aR,6R,6aR)-6-hydroxyhexahydrofuro[3,2-b]furan-3-yloxy)-1H-indazol-1-yl)acetyl)-N-(6-bromo-3-methylpyridin-2-yl)-3-azabicyclo[3.1.0]hexane-2-carboxamide] |
| > 10 µM | Cc1cccc(NC(=O)[C@@H]2[C@H]3CC[C@H](C3)N2C(=O)Cn2cc(C(N)=O)c3cc(OCS(=O)(=O)NC(C)(C)C)ccc32)n1 [Compound 186, 5-((N-(tert-butyl)sulfamoyl)methoxy)-1-(2-((1R,3S,4S)-3-((6-methylpyridin-2-yl)carbamoyl)-2-azabicyclo[2.2.1]heptan-2-yl)-2-oxoethyl)-1H-indole-3-carboxamide] |
| > 10 µM | Cc1cccc(NC(=O)[C@@H]2[C@H]3CC[C@H](C3)N2C(=O)Cn2cc(C(N)=O)c3cc(OCS(N)(=O)=O)ccc32)n1 [Compound 187, 1-(2-((1R,3S,4S)-3-((6-Methylpyridin-2-yl)carbamoyl)-2-azabicyclo[2.2.1]heptan-2-yl)-2-oxoethyl)-5-(sulfamoylmethoxy)-1H-indole-3-carboxamide] |
| < 1 µM | CC(=O)c1nn(CC(=O)N2C[C@H](F)C[C@H]2C(=O)Nc2cccc(Br)n2)c2ccc(OC3CCOC3)cc12 (stereo partly drawn) [Compound 193, (2S,4R)-1-(2-(3-acetyl-5-((tetrahydrofuran-3-yl)oxy)-1H-indazol-1-yl)acetyl)-N-(6-bromopyridin-2-yl)-4-fluoropyrrolidine-2-carboxamide] |
| < 1 µM | CC(=O)c1nn(CC(=O)N2C[C@H](F)C[C@H]2C(=O)Nc2cccc(Br)n2)c2ccc(OC3CCCC3)cc12 [Compound 194, (2S,4R)-1-(2-(3-acetyl-5-(cyclopentyloxy)-1H-indazol-1-yl)acetyl)-N-(6-bromopyridin-2-yl)-4-fluoropyrrolidine-2-carboxamide] |
| < 1 µM | CC(=O)c1nn(CC(=O)N2C[C@H](F)C[C@H]2C(=O)Nc2cccc(Br)n2)c2ccc(O[C@@H]3CO[C@H]4[C@@H]3OC[C@H]4O)cc12 [Compound 200, (2S,4R)-1-(2-(3-acetyl-5-(((3R,3aR,6R,6aR)-6-hydroxy-hexahydrofuro[3,2-b]furan-3-yl)oxy)-1H-indazol-1-yl)acetyl)-N-(6-bromopyridin-2-yl)-4-fluoropyrrolidine-2-carboxamide] |
| < 1 µM | CC(=O)c1nn(CC(=O)N2C[C@H](F)C[C@H]2C(=O)Nc2cccc(Br)n2)c2cc(OCP(=O)(O)O)ccc12 [Compound 201, (((3-acetyl-1-(2-((2S,4R)-2-((6-bromopyridin-2-yl)carbamoyl)-4-fluoropyrrolidin-1-yl)-2-oxoethyl)-1H-indazol-6-yl)oxy)methyl)phosphonic acid] |
| < 1 µM | CC(=O)c1nn(CC(=O)N2[C@H](C(=O)Nc3cccc(Br)n3)C[C@@]3(C)C[C@@H]23)c2cc(OCP(=O)(O)O)ccc12 [Compound 250, (((3-acetyl-1-(2-((1R,3S,5R)-3-((6-bromopyridin-2-yl)carbamoyl)-5-methyl-2-azabicyclo[3.1.0]hexan-2-yl)-2-oxoethyl)-1H-indazol-6-yl)oxy)methyl)phosphonic acid] |
| < 1 µM | CC(=O)c1cn(CC(=O)N2C[C@H](F)C[C@H]2C(=O)Nc2cccc(-c3ccccc3Cl)c2F)c2ccc(OCC[S+]([O-])CC(C)(CO)CO)cc12 (stereo partly drawn) [Compound 251, (2S,4R)-1-(2-(3-acetyl-5-(2-(3-hydroxy-2-(hydroxymethyl)-2-methyl-propylsulfinyl)ethoxy)-1H-indol-1-yl)acetyl)-N-(2′-chloro-2-fluorobiphenyl-3-yl)-4-fluoropyrrolidine-2-carboxamide] |

| Structure (SMILES) | IC50 |
| --- | --- |
| CCOP(=O)(COc1ccc2c(c1)c(C(N)=O)cn2CC(=O)N1[C@@H]2CC[C@@H](C2)[C@H]1C(=O)Nc1cccc(C)n1)OCC [Compound 182, diethyl (((3-Carbamoyl-1-(2-((1R,3S,4S)-3-((6-methylpyridin-2-yl)carbamoyl)-2-azabicyclo[2.2.1]heptan-2-yl)-2-oxoethyl)-1H-indol-5-yl)oxy)methyl)phosphonate] | > 10 µM |
